Tested on: iPSC-CMs
Assay: Paced action potentials (perforated patch clamp; control, EDC or ODC with added IK1) after E-4031 addition
Format: cell-based, human
Settings: for APD90 after E-4031 addition: 500 nM E-4031 perfused 2 minutes, all cells, FIG. 7A
Description: Cor.4U hiPSC-CMs (Axiogenesis, Cologne, Germany) were thawed, seeded, and maintained according to the protocols provided by the manufacturer. The cells were seeded on 0.5% gelatin-coated 8 mm coverslips and plated at 100,000 cells/mL. Cells were incubated for at least 7 days post thaw prior to use for experiments.
Adenoviral vector was constructed using the Addgene (Cambridge, Mass.) plasmid pAAV-CAG-ArchT-GFP, deposited by K. Deisseroth's laboratory (plasmid 20940) (Ambrosi C M, et al. Methods Mol Biol. 2014, 1181:215-28; Yu J, et al. Methods Mol Biol. 2016, 1408:303-17). ArchT was expressed in iPSC-CMs using MOIs of 250-300, as described in previously published protocols using an adenovirus (Ambrosi C M, et al. Methods Mol Biol. 2014, 1181:215-28; Yu J, et al. Methods Mol Biol. 2016, 1408:303-1). Determination of successful infection was confirmed via eGFP fluorescence. Functionality of ArchT was confirmed by illuminating the cells with an LED (M565L3, ThorLabs) at 595 nm through a 40× objective and observing the amount of hyperpolarization of the membrane potential under current clamp. Stability of IArchT was measured with a voltage and light clamp protocol over time to investigate rundown with ArchT illumination (FIGS. 18A-18B).
Borosilicate glass pipettes were pulled to a resistance of 1-3 MΩ using a flaming/brown micropipette puller (Model P-1000, Sutter Instrument). The pipettes were filled with intracellular solution containing (mM) 10 NaCl, 130 KCl, 1 MgCl2, 10 CaCl2, 5.5 Dextrose, 10 HEPES. For perforated patch, the pipette was first backfilled by dipping the pipette tip into the intracellular solution for 10 seconds. Only the very tip contained the intracellular solution without any gramicidin to minimize the amount of gramicidin exiting the pipette prior to obtaining a giga-ohm seal. The pipette was then filled with the intracellular solution containing 8 μg/mL gramicidin passed through a 0.25 μm filter. […] The high calcium concentration in the intracellular pipette solution serves to verify the integrity of the patch as patch rupture under these conditions would lead to immediate cell contracture (Ishihara K, et al. J Physiol. 2004, 540(3):831-41). The coverslips containing iPSC-CMs were placed in the bath and constantly perfused with an extracellular solution at 37° C. containing (mM) 137 NaCl, 5.4 KCl, 1 MgSO4, 2 CaCl2, 10 Dextrose, 10 HEPES. GFP-expressing single cells that were visibly contracting were chosen for experiments. Patch-clamp measurements were made by a patch-clamp amplifier (Model 2400, A-M Systems, Inc) controlled by the Real Time eXperiment Interface (RTXI) to coordinate the amplifier via the data acquisition card (PCI-6025E, National Instruments). The voltage was corrected for the calculated liquid junction potential of −2.8 mV. RTXI was also used to control the LED light intensity. The series resistance was less than 10 MΩ and was not compensated.
To test the feasibility of using ArchT to inject a target current, stimulated action potentials under the EDC system were compared to those of the ODC platform at three different pacing frequencies: 0.5, 1 and 2 Hz. The cells were stimulated 10 times at 0.5, 1 and 2 Hz sequentially under three conditions (the order of which was randomized): (A) control, in which no additional current was added, (B) addition of Itarget with EDC, and (C) and addition of Itarget with ODC.
After the cells had undergone the aforementioned pacing protocol under the same three conditions, 500 nM E-4031 (a class III antiarrhythmic drug that blocks potassium channels, primarily of the human ether-a-go-go related gene (hERG) type) was perfused into the bath containing the coverslip of iPSC-CMs for 2 minutes. Experiments were again conducted under the same pacing protocol and conditions to measure the effect of IKr inhibition. […]

## Cc1cccc(CCN2CCC(C(=O)c3ccc(NS(C)(=O)=O)cc3)CC2)n1 [E-4031]
500 nM E-4031, example cell 13 paced at 0.5 Hz, control, EDC and ODC conditions, FIG. 6A-C
  APD with E-4031 addition: increases
500 nM E-4031, paced at 0.5 Hz
  drug-induced APD prolongation, control (without dynamic clamp) cells compared to EDC and ODC: more dramatic
  triangulation (APD90-APD30), control (without dynamic clamp) cells compared to EDC and ODC: larger
Paced at 0.5 Hz, Itarget (IK1) added with EDC
  APD90 after E-4031 addition: increased
Paced at 0.5 Hz, Itarget (IK1) added with ODC
  APD90 after E-4031 addition: increased
Paced at 0.5 Hz, control (no current addition)
  APD90 after E-4031 addition: increased
